Legend:
[1] = system: cholesterol biosynthesis in HEP-G2 cells; assay: Cholesterol biosynthesis inhibition in HEP-G2 liver cell cultures (14C-acetate); assay type: cell-based; conditions: Homo sapiens, HepG2, standard products, 1 h preincubation, 3 h with (14C)acetate, read-out: IC50, inhibition of cholesterol biosynthesis
Protocol: Monolayers of HEP-G2 cells in liproprotein-free nutrient medium are preincubated with appropriate concentrations of the substances of the formula I to be tested for one hour. After addition of the […] biosynthesis precursor sodium (^14 C)acetate the incubation is continued for 3 hours. After this a portion of the cells is subjected to alkaline hydrolysis after addition of an internal standard of ^3 H-cholesterol. The lipids from the hydrolyzed cells are extracted with a chloroform/methanol mixture. This lipid mixture is, after addition of carrier cholesterol, fractionated by preparative thin-layer chromatography, the cholesterol band is stained and then isolated, and the amount of ^14 C-cholesterol formed from the ^14 C-precursor is determined by scintigraphy. Cellular protein was determined in an aliquot of the cells so that the amount of ^14 C-cholesterol formed from ^14 C-precursor per mg of cellular protein per unit time can be calculated. The control is used for comparison for the inhibitory effect of an added test product so that it is possible to state directly the inhibition of the cholesterol biosynthesis at a particular molar concentration of the test product in the medium. The integrity of the cell culture and the absence of cell damage owing to exposure to the product is assessed morphologically (light microscopy) and measured biochemically by determining the lactic dehydrogenase release into the incubation medium on aliquots of the cell culture.

[2] = system: serum lipoproteins; assay: Lipoprotein fractionation by ultracentrifugation in rats (serum cholesterol, protein, triglycerides; hypolipemic effect); assay type: in vivo, Rat, male, strain: HOE WISKf (SPF 71); conditions: for % Change compared with control, Protein LDL / % Change compared with control, Protein VLDL / % Change compared with control, Total cholesterol HDL / % Change compared with control, Total cholesterol LDL / % Change compared with control, Total cholesterol VLDL / % Change compared with control, Triglycerides VLDL / Cholesterol HDL/LDL Based on control / Cholesterol HDL/LDL: male rat, by gavage; for % Change compared with control, Protein LDL / % Change compared with control, Protein VLDL / % Change compared with control, Total cholesterol HDL / % Change compared with control, Total cholesterol LDL / % Change compared with control, Total cholesterol VLDL / % Change compared with control, Triglycerides VLDL: 7 administrations; for Cholesterol HDL/LDL Based on control: control 1.00; for Cholesterol HDL/LDL: control 3.75
Protocol: Male rats with an initial weight above 180 g received the test product of the formula I in polyethylene glycol 400 by gavage once a day (in the morning) (0.5 ml/100 g of body weight); the relevant control group received only the same amount of solvent. The last (7th) administration took place 24 hours before blood sampling and sacrifice. There was free access to feed and water during the test. Feed was withdrawn 24 hours before the retroorbital blood sampling, which took place under light ether anesthesia before and after the treatment period (that is to say on the 1st and 8th day). Serum glutamic-oxalate transaminase (SGOT), serum glutamic-pyruvic transaminase (SGPT), alkaline phosphatase (aP), bilirubin and creatinine were determined in the serum of each individual animal. […] Immediately after the blood sampling the animals were sacrificed by distortion of the spinal column. The livers were removed, and the relative liver weight was determined. In addition, the body weight gain and the feed consumption were investigated. The statistical analysis was carried out by Student's t test.
To analyze the serum lipoproteins, after the treatment period the serum of all rats in a group was pooled.

[3] = Body weight, relative liver weight and feed consumption in rats; assay type: in vivo, Rat, male, strain: HOE WISKf (SPF 71); conditions: for % Change from control, Body weight after / % Change from control, rel. feed consumption after: male rat, after treatment
Protocol: (§1) Male rats with an initial weight above 180 g received the test product of the formula I in polyethylene glycol 400 by gavage once a day (in the morning) (0.5 ml/100 g of body weight); the relevant control group received only the same amount of solvent. The last (7th) administration took place 24 hours before blood sampling and sacrifice. There was free access to feed and water during the test. Feed was withdrawn 24 hours before the retroorbital blood sampling, which took place under light ether anesthesia before and after the treatment period (that is to say on the 1st and 8th day). Serum glutamic-oxalate transaminase (SGOT), serum glutamic-pyruvic transaminase (SGPT), alkaline phosphatase (aP), bilirubin and creatinine were determined in the serum of each individual animal. The total glycerol was measured from the pooled serum of all animals in a group as measure of the triglycerides (Eggstein, M. Kreutz, F. H.: Klin. Wschr. 44, 262 and 267 (1966); Wahlefeld, A. W., in: H. O. Bergmeier: Methoden der enzymatischen Analyse (Methods of enzymatic analysis), 2nd Edition, Volume II, Verlag Chemie 1974, Page 1878). Immediately after the blood sampling the animals were sacrificed by distortion of the spinal column. The livers were removed, and the relative liver weight was determined. In addition, the body weight gain and the feed consumption were investigated. The statistical analysis was carried out by Student's t test.

[4] = Serum enzymes, bilirubin and creatinine in rats; assay type: in vivo, Rat, male, strain: HOE WISKf (SPF 71); conditions: for Bilirubin, Final, mean / Creatinine, Final, mean / Serum enzymes SGOT, Final, mean / Serum enzymes SGPT, Final, mean / Serum enzymes aP, Final, mean / Bilirubin, Initial, mean / Creatinine, Initial, mean / Serum enzymes SGOT, Initial, mean / Serum enzymes SGPT, Initial, mean / Serum enzymes aP, Initial, mean: male rat; for Bilirubin, Final, mean / Creatinine, Final, mean / Serum enzymes SGOT, Final, mean / Serum enzymes SGPT, Final, mean / Serum enzymes aP, Final, mean: after treatment (8th day); for Bilirubin, Initial, mean / Creatinine, Initial, mean / Serum enzymes SGOT, Initial, mean / Serum enzymes SGPT, Initial, mean / Serum enzymes aP, Initial, mean: before treatment (1st day)
Protocol: as §1

## C[C@H](CCCC(C)(C)O)[C@H]1CC[C@H]2[C@@H]3CC=C4C[C@@H](O)CC[C@]4(C)[C@H]3CC[C@]12C [25-hydroxycholesterol]
[1]
  IC50: 230 nM

## CCOC(=O)C(C)(C)Oc1ccc(Cl)cc1 [Clofibrate, clofibrate]
[2]; 100 mg/kg/day
  % Change compared with control, Protein LDL: +2%
  % Change compared with control, Protein VLDL: +5%
  % Change compared with control, Total cholesterol HDL: -26%
  % Change compared with control, Total cholesterol LDL: -31%
  % Change compared with control, Total cholesterol VLDL: -46%
  % Change compared with control, Triglycerides VLDL: +2%
  Cholesterol HDL/LDL Based on control: 1.08
  Cholesterol HDL/LDL: 4.03
[3]; rat, in vivo
  relative liver weight: increased

## CC[C@H](C)C(=O)O[C@H]1C[C@@H](C)C=C2C=C[C@H](C)[C@H](CC[C@@H]3C[C@@H](O)CC(=O)O3)[C@H]21 [Lovastatin, lovastatin]
[2]; 10 mg/kg/day
  % Change compared with control, Protein LDL: -16%
  % Change compared with control, Protein VLDL: -22%
  % Change compared with control, Total cholesterol HDL: -14%
  % Change compared with control, Total cholesterol LDL: -2%
  % Change compared with control, Total cholesterol VLDL: -32%
  % Change compared with control, Triglycerides VLDL: -15%
  Cholesterol HDL/LDL Based on control: 0.89
  Cholesterol HDL/LDL: 3.32
[2]; 50 mg/kg/day
  % Change compared with control, Protein LDL: -19%
  % Change compared with control, Protein VLDL: -40%
  % Change compared with control, Total cholesterol HDL: -15%
  % Change compared with control, Total cholesterol LDL: -26%
  % Change compared with control, Total cholesterol VLDL: -52%
  % Change compared with control, Triglycerides VLDL: -38%
  Cholesterol HDL/LDL Based on control: 1.14
  Cholesterol HDL/LDL: 4.29
[2]; 300 mg/kg/day
  % Change compared with control, Protein LDL: +5%
  % Change compared with control, Protein VLDL: -37%
  % Change compared with control, Total cholesterol HDL: -9%
  % Change compared with control, Total cholesterol LDL: +3%
  % Change compared with control, Total cholesterol VLDL: -49%
  % Change compared with control, Triglycerides VLDL: -34%
  Cholesterol HDL/LDL Based on control: 0.89
  Cholesterol HDL/LDL: 3.33
[2]; rat
  effect on LDL-cholesterol compared with the compound according to the invention: distinctly inferior
  effect on VLDL and HDL compared with the compound according to the invention: about identical
[4]; 10 mg/kg/day
  Bilirubin, Final, mean: 2.7 µmol/L
  Creatinine, Final, mean: 65 µmol/L
  Serum enzymes SGOT, Final, mean: 59 U/L
  Serum enzymes SGPT, Final, mean: 25 U/L
  Serum enzymes aP, Final, mean: 302 U/L
  Bilirubin, Initial, mean: 3.8 µmol/L
  Creatinine, Initial, mean: 60 µmol/L
  Serum enzymes SGOT, Initial, mean: 42 U/L
  Serum enzymes SGPT, Initial, mean: 31 U/L
  Serum enzymes aP, Initial, mean: 409 U/L
[4]; 50 mg/kg/day
  Bilirubin, Final, mean: 2.5 µmol/L
  Creatinine, Final, mean: 62 µmol/L
  Serum enzymes SGOT, Final, mean: 89 U/L
  Serum enzymes SGPT, Final, mean: 46 U/L
  Serum enzymes aP, Final, mean: 324 U/L
  Bilirubin, Initial, mean: 2.9 µmol/L
  Creatinine, Initial, mean: 60 µmol/L
  Serum enzymes SGOT, Initial, mean: 38 U/L
  Serum enzymes SGPT, Initial, mean: 31 U/L
  Serum enzymes aP, Initial, mean: 355 U/L
[4]; 300 mg/kg/day
  Bilirubin, Final, mean: 2.9 µmol/L
  Creatinine, Final, mean: 61 µmol/L
  Serum enzymes SGOT, Final, mean: 107 U/L
  Serum enzymes SGPT, Final, mean: 44 U/L
  Serum enzymes aP, Final, mean: 369 U/L
  Bilirubin, Initial, mean: 2.7 µmol/L
  Creatinine, Initial, mean: 64 µmol/L
  Serum enzymes SGOT, Initial, mean: 59 U/L
  Serum enzymes SGPT, Initial, mean: 32 U/L
  Serum enzymes aP, Initial, mean: 386 U/L
[4]; rat
  transaminase SGOT change: dose-dependent and distinctly pathological change
[3]; 10 mg/kg/day
  % Change from control, Body weight after: +4%
  % Change from control, rel. feed consumption after: +8%
[3]; 50 mg/kg/day
  % Change from control, Body weight after: 0%
  % Change from control, rel. feed consumption after: +4%
[3]; 300 mg/kg/day
  % Change from control, Body weight after: +1%
  % Change from control, rel. feed consumption after: +1%
[1]
  IC50: 23 nM

— US5200424A, “Use of 10-membered ring lactones as lipid regulators” (priority 1990, dated 1993)
